# From patent US9156801B2, “2-substituted oleanolic acid derivative, method preparing for same, and application thereof” (HANGZHOU BENSHENG PHARMACEUTICAL CO., LTD., priority 2011, dated 2015)
# Tests used:
# [1] = system: RPMI8226 cell line; test: multiple myeloma cell growth inhibition, MTT; type: cell-based; settings: Homo sapiens, RPMI-8226; for inhibition at 16 µg/mL: RPMI8226, 16 μg/mL compound, 72 h, read-out: IR (cell proliferation inhibition rate); for IC50: RPMI8226, 72 h
# In short: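 Viability was measured by MTT after a 72 h compound exposure (37° C, 5% CO2) of RPMI8226 myeloma cells seeded at 6000 per well in 1640 medium with 10% fetal bovine serum. Growth inhibition was expressed relative to untreated cells, taken as 0%.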
# [2] = system: A549 cell line; test: solid tumor cell growth inhibition, MTT; type: cell-based; settings: Homo sapiens; for IC50: A549, 72 h; for inhibition at 16 µg/mL: A549, 16 μg/mL compound, 72 h, read-out: IR (cell proliferation inhibition rate)
# In short: (§1)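 A 72 h continuous exposure to the oleanolic acid derivatives at different concentrations followed a 24 h settling period for cells seeded at 4000 per well. Medium was DMEM high glucose with 10% FBS, 37° C, 5% CO2. Surviving cells were assessed by MTT.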
# [3] = system: MGC 803 cell line; test: solid tumor cell growth inhibition, MTT; type: cell-based; settings: Homo sapiens; for inhibition at 16 µg/mL: MGC 803, 16 μg/mL compound, 72 h, read-out: IR (cell proliferation inhibition rate); for IC50: MGC 803, 72 h
# In short: as §1
# [4] = system: CNE cell line; test: solid tumor cell growth inhibition, MTT; type: cell-based; settings: Homo sapiens, 72 h; for inhibition at 16 µg/mL: 16 μg/mL compound, read-out: IR (cell proliferation inhibition rate)
# In short: as §1
# [5] = system: SK-OV-3 cell line; test: solid tumor cell growth inhibition, MTT; type: cell-based; settings: Homo sapiens; for IC50: SK-OV-3, 72 h; for inhibition at 16 µg/mL: SK-OV-3, 16 μg/mL compound, 72 h, read-out: IR (cell proliferation inhibition rate)
# In short: as §1
# [6] = system: CaES-17 cell line; test: solid tumor cell growth inhibition, MTT; type: cell-based; settings: Homo sapiens, CaEs17; for inhibition at 16 µg/mL: CaES-17, 16 μg/mL compound, 72 h, read-out: IR (cell proliferation inhibition rate); for IC50: CaES-17, 72 h
# In short: as §1
# [7] = system: PANC-1 cell line; test: solid tumor cell growth inhibition, MTT; type: cell-based; settings: Homo sapiens; for IC50: PANC-1, 72 h; for inhibition at 16 µg/mL: PANC-1, 16 μg/mL compound, 72 h, read-out: IR (cell proliferation inhibition rate)
# In short: as §1
# [8] = system: Becap37 cell line; test: solid tumor cell growth inhibition, MTT; type: cell-based; settings: Homo sapiens; for inhibition at 16 µg/mL: Becap37, 16 μg/mL compound, 72 h, read-out: IR (cell proliferation inhibition rate); for IC50: Becap37, 72 h
# In short: as §1
# [9] = system: MG-63 cell line; test: solid tumor cell growth inhibition, MTT; type: cell-based; settings: Homo sapiens; for IC50: MG-63, 72 h; for inhibition at 16 µg/mL: MG-63, 16 μg/mL compound, 72 h, read-out: IR (cell proliferation inhibition rate)
# In short: as §1
# [10] = system: Hep-2 cell line; test: solid tumor cell growth inhibition, MTT; type: cell-based; settings: Homo sapiens; for IC50: HEp-2, 72 h; for inhibition at 16 µg/mL: Hep-2, 16 μg/mL compound, 72 h, read-out: IR (cell proliferation inhibition rate)
# In short: as §1
# [11] = system: U87 MG cell line; test: solid tumor cell growth inhibition, MTT; type: cell-based; settings: Homo sapiens, U-87 MG, 72 h; for inhibition at 16 µg/mL: 16 μg/mL compound, read-out: IR (cell proliferation inhibition rate)
# In short: as §1
# [12] = system: PC-3 cell line; test: solid tumor cell growth inhibition, MTT; type: cell-based; settings: Homo sapiens; for IC50: PC-3, 72 h; for inhibition at 16 µg/mL: PC-3, 16 μg/mL compound, 72 h, read-out: IR (cell proliferation inhibition rate)
# In short: as §1
# [13] = system: Hela cell line; test: solid tumor cell growth inhibition, MTT; type: cell-based; settings: Homo sapiens, 72 h; for IC50: HeLa; for inhibition at 16 µg/mL: Hela, 16 μg/mL compound, read-out: IR (cell proliferation inhibition rate)
# In short: as §1
# [14] = system: RKO cell line; test: solid tumor cell growth inhibition, MTT; type: cell-based; settings: Homo sapiens, 72 h; for inhibition at 16 µg/mL: 16 μg/mL compound, read-out: IR (cell proliferation inhibition rate)
# In short: as §1
# [15] = system: K562/adr cell line; test: leukemia cell growth inhibition, MTT; type: cell-based; settings: Homo sapiens, 72 h; for IC50: K562/Adr; for inhibition at 16 µg/mL: K562/adr, 16 μg/mL compound, read-out: IR (cell proliferation inhibition rate)
# In short: (§2)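 Proliferation inhibition was read by MTT after 72 h of compound exposure (37 °C, 5% CO2), untreated wells defining 0%. Each well held 6000 cells in 1640 medium plus 10% fetal bovine serum, with test compounds at varied concentrations.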
# [16] = system: Jurkat cell line; test: leukemia cell growth inhibition, MTT; type: cell-based; settings: Homo sapiens, 72 h; for inhibition at 16 µg/mL: 16 μg/mL compound, read-out: IR (cell proliferation inhibition rate)
# In short: as §2
# [17] = system: Kasumi-1 cell line; test: leukemia cell growth inhibition, MTT; type: cell-based; settings: Homo sapiens; for inhibition at 16 µg/mL: Kasumi-1, 16 μg/mL compound, 72 h, read-out: IR (cell proliferation inhibition rate); for IC50: Kasumi-1, 72 h
# In short: as §2
# [18] = system: H9 cell line; test: leukemia cell growth inhibition, MTT; type: cell-based; settings: Homo sapiens; for IC50: H9, 72 h; for inhibition at 16 µg/mL: H9, 16 μg/mL compound, 72 h, read-out: IR (cell proliferation inhibition rate)
# In short: as §2
# [19] = system: NB4 cell line; test: leukemia cell growth inhibition, MTT; type: cell-based; settings: Homo sapiens, NB-4; for inhibition at 16 µg/mL: NB4, 16 μg/mL compound, 72 h, read-out: IR (cell proliferation inhibition rate); for IC50: NB4, 72 h
# In short: as §2
# [20] = system: Hep G2 cell line; test: solid tumor cell growth inhibition, MTT; type: cell-based, human; settings: Homo sapiens; for inhibition at 16 µg/mL: HepG2, 72 h, Hep G2, 16 μg/mL compound, 72 h, read-out: IR (cell proliferation inhibition rate); for IC50: HepG2, Hep G2, 72 h
# In short: as §1
SMILES,inhibition at 16 µg/mL [1],IC50 [1],IC50 [2],inhibition at 16 µg/mL [2],inhibition at 16 µg/mL [3],IC50 [3],inhibition at 16 µg/mL [4],IC50 [4],IC50 [5],inhibition at 16 µg/mL [5],inhibition at 16 µg/mL [6],IC50 [6],IC50 [7],inhibition at 16 µg/mL [7],inhibition at 16 µg/mL [8],IC50 [8],IC50 [9],inhibition at 16 µg/mL [9],IC50 [10],inhibition at 16 µg/mL [10],other results
CC1(C)CC[C@]2(C(=O)O)CC[C@]3(C)C(=CC[C@@H]4[C@@]5(C)CC(C(=O)NCCN6CCCC6)C(=O)C(C)(C)[C@@H]5CC[C@]43C)[C@@H]2C1 (stereo partly drawn) [BS-OA-105],81.8%,10.5 µg/mL,> 16 µg/mL,24%,29.2%,> 16 µg/mL,54.5%,10.6 µg/mL,> 16 µg/mL,5%,45%,18.9 µg/mL,> 16 µg/mL,16.9%,43.7%,> 16 µg/mL,12.6 µg/mL,54.6%,> 16 µg/mL,28.4%,inhibition at 16 µg/mL [11]: 61.7%; IC50 [11]: 2.31 µg/mL; IC50 [12]: > 16 µg/mL; inhibition at 16 µg/mL [12]: 18.4%; IC50 [13]: 7.29 µg/mL; inhibition at 16 µg/mL [13]: 68.1%; inhibition at 16 µg/mL [14]: 8.6%; IC50 [14]: > 16 µg/mL; IC50 [15]: 6.52 µg/mL; inhibition at 16 µg/mL [15]: 85%; inhibition at 16 µg/mL [16]: 37.5%; IC50 [16]: > 16 µg/mL; inhibition at 16 µg/mL [17]: 36.6%; IC50 [17]: > 16 µg/mL; IC50 [18]: > 16 µg/mL; inhibition at 16 µg/mL [18]: 31.5%; inhibition at 16 µg/mL [19]: 74.7%; IC50 [19]: 10.6 µg/mL; inhibition at 16 µg/mL [20]: 29.5%; IC50 [20]: > 16 µg/mL
CCN(CC)CCNC(=O)C1C[C@@]2(C)C(CC[C@]3(C)C2CC=C2C4CC(C)(C)CC[C@]4(C(=O)O)CC[C@]23C)C(C)(C)C1=O (stereo partly drawn) [BS-OA-106],68.3%,12.2 µg/mL,> 16 µg/mL,31.5%,13.4%,> 16 µg/mL,44.3%,> 16 µg/mL,> 16 µg/mL,-17%,10%,> 16 µg/mL,> 16 µg/mL,16.9%,27.5%,> 16 µg/mL,> 16 µg/mL,4.9%,> 16 µg/mL,3.8%,inhibition at 16 µg/mL [11]: 7.2%; IC50 [11]: > 16 µg/mL; IC50 [12]: > 16 µg/mL; inhibition at 16 µg/mL [12]: -6.4%; IC50 [13]: > 16 µg/mL; inhibition at 16 µg/mL [13]: 34.6%; inhibition at 16 µg/mL [14]: 5.3%; IC50 [14]: > 16 µg/mL; IC50 [15]: 4.12 µg/mL; inhibition at 16 µg/mL [15]: 98.2%; inhibition at 16 µg/mL [16]: 43.2%; IC50 [16]: > 16 µg/mL; inhibition at 16 µg/mL [17]: 43%; IC50 [17]: > 16 µg/mL; IC50 [18]: > 16 µg/mL; inhibition at 16 µg/mL [18]: 44.6%; inhibition at 16 µg/mL [19]: 86.6%; IC50 [19]: 7.32 µg/mL; inhibition at 16 µg/mL [20]: 33.6%; IC50 [20]: > 16 µg/mL
CCN(CC)CCCNC(=O)C1C[C@@]2(C)C(CC[C@]3(C)C2CC=C2C4CC(C)(C)CC[C@]4(C(=O)O)CC[C@]23C)C(C)(C)C1=O (stereo partly drawn) [BS-OA-108],97.3%,6.4 µg/mL,> 16 µg/mL,27.5%,13.1%,> 16 µg/mL,42.7%,> 16 µg/mL,> 16 µg/mL,-15.6%,32%,> 16 µg/mL,> 16 µg/mL,21.6%,38.4%,> 16 µg/mL,> 16 µg/mL,47.4%,> 16 µg/mL,22.7%,inhibition at 16 µg/mL [11]: 18.5%; IC50 [11]: > 16 µg/mL; IC50 [12]: > 16 µg/mL; inhibition at 16 µg/mL [12]: -8.2%; IC50 [13]: > 16 µg/mL; inhibition at 16 µg/mL [13]: 43%; inhibition at 16 µg/mL [14]: 63.2%; IC50 [14]: 14.3 µg/mL; IC50 [15]: 4.83 µg/mL; inhibition at 16 µg/mL [15]: 96.1%; inhibition at 16 µg/mL [16]: 66.5%; IC50 [16]: 12.6 µg/mL; inhibition at 16 µg/mL [17]: 74.5%; IC50 [17]: 10.2 µg/mL; IC50 [18]: 15.3 µg/mL; inhibition at 16 µg/mL [18]: 57.7%; inhibition at 16 µg/mL [19]: 92.4%; IC50 [19]: 6.86 µg/mL; inhibition at 16 µg/mL [20]: 42.3%; IC50 [20]: > 16 µg/mL
